The target of the test is calcium channel (Rattus norvegicus, UniProt P22002). The experiment in a line: Calcium channel binding assay similar to Example 3, 3[H]-diltiazem as competing radioligand. As to the method: […] […] The reactions were carried out in 50 mM TRIS-HCl (pH 7.7) at 25° C. for 60 minutes. The reaction was terminated by rapid vacuum filtration onto glass fiber filters. […] Molecular Pharmacology 25, 235-241 (1984)).

[1] abbreviates: Binding Assay No. 2 (Table 2), 3[H]-diltiazem radioligand.

Experimental findings from US9132200B2, “Oligomer-calcium channel blocker conjugates” (NEKTAR THERAPEUTICS, priority 2007, dated 2015) are described below.

Like-named read-outs stand apart in the source and are kept apart here.

By IC50 is commonly meant the concentration that gives 50% inhibition.

Chain of calcium channel (P22002 whole entry): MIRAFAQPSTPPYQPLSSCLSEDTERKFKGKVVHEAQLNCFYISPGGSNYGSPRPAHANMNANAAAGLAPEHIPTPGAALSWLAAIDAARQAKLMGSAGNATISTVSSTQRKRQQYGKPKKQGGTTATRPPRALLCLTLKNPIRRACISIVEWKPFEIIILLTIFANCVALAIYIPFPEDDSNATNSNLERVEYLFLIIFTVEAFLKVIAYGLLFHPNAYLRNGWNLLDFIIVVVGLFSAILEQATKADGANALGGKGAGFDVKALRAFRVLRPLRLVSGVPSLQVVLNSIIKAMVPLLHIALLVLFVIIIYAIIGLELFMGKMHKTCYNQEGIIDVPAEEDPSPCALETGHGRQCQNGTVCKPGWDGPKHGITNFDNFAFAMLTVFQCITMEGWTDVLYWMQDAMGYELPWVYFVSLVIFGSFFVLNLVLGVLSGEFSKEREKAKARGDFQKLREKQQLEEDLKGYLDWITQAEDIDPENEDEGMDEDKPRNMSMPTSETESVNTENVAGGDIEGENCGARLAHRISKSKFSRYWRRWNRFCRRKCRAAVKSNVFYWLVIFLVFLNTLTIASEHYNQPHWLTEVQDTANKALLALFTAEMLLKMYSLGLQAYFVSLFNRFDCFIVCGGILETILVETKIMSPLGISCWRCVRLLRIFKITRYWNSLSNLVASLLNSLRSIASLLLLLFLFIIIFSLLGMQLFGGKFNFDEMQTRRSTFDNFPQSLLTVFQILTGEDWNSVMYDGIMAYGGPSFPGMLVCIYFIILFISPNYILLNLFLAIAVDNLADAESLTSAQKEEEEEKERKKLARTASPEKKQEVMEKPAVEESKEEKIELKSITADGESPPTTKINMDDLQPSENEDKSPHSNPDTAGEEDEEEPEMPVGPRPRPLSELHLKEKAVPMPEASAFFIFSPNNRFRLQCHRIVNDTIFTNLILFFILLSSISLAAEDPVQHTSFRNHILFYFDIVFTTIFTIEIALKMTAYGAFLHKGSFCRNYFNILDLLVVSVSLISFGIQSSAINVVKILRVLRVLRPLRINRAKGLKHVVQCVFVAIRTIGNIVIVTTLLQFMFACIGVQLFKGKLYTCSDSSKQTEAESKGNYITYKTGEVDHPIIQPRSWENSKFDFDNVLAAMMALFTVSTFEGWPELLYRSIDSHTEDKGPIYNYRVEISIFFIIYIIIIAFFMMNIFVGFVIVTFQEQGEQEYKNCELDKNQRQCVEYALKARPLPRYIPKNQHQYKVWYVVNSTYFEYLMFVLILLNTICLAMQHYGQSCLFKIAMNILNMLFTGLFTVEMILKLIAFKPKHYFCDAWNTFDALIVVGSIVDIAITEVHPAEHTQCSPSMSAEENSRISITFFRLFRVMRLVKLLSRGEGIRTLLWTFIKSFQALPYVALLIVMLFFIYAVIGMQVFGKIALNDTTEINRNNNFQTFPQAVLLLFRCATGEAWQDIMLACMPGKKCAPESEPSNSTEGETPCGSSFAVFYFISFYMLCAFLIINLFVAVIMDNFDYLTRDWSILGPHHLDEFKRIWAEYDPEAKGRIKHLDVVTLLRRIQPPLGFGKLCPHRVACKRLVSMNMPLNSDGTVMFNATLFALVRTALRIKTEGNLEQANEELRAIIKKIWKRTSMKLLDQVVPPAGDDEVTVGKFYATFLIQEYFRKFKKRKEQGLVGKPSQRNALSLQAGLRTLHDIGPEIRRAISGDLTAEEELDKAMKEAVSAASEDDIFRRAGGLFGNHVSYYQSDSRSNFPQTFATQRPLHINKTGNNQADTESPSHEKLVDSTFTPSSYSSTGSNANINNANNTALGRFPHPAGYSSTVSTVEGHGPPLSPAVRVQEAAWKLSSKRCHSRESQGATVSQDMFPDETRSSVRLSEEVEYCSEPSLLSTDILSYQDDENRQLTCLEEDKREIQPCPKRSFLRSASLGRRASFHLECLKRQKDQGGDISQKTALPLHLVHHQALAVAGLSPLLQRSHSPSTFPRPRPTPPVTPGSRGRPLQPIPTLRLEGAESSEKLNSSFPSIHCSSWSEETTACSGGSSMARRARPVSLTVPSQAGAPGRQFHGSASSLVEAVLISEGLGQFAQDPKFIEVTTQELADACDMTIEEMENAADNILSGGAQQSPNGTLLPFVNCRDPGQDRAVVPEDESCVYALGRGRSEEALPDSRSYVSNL

`COCCOCCOCCOCCOCCOCCOCCOc1ccc(CCN(C)CCCC(C#N)(c2ccc(OC)c(OC)c2)C(C)C)cc1OC` (stereo not shown) [mPEG7-O-Verapamil, O-mPEG7-verapamil]: the IC50 under setting [1] turned out to be 1130 nM.
As to `COCCOCCOCCOCCOCCOCCOc1ccc(CCN(C)CCCC(C#N)(c2ccc(OC)c(OC)c2)C(C)C)cc1OC` (stereo not shown) [mPEG6-O-Verapamil, O-mPEG6-verapamil], the IC50 was found to be 349 nM.
As for `COCCOCCOCCOc1ccc(CCN(C)CCCC(C#N)(c2ccc(OC)c(OC)c2)C(C)C)cc1OC` (stereo not shown) [mPEG3-O-Verapamil, O-mPEG3-verapamil], the IC50 under setting [1] worked out at 541 nM.
For the compound `COCCOCCOCCOCCOCCOc1ccc(CCN(C)CCCC(C#N)(c2ccc(OC)c(OC)c2)C(C)C)cc1OC` (stereo not shown) [mPEG5-O-Verapamil, O-mPEG5-verapamil], the 50% inhibitory concentration (IC50) under setting [1] was 852 nM.
